# Reference: US7196074B2, “Methods of making, using and pharmaceutical formulations comprising 7α, 11β-dimethyl-17β-hydroxyestra-4, 14-dien-3-one and 17 esters thereof” (The United States of America as represented by the …, priority 2000, dated 2007)
# What was measured:
# ventral prostate weight = test: Oral androgenic potency, ventral prostate weight assay in orchidectomized immature rats (gavage daily for seven days); type: in vivo, Sprague-Dawley rats; conditions: ventral prostate weight; for oral androgenic activity, times as potent as methyltestosterone: gavage daily for 7 days in 10% ethanol/sesame oil (oily carrier)
# Protocol: (§1) Immature (about 21-day-old) Sprague-Dawley rats were orchidectomized under anesthesia, and randomly assignee to groups of ten animals for each dose level of the active undergoing testing. Each active was dissolved in 10% ethanol/sesame oil and administered by gavage (oral) each day for seven days beginning on the date of the orchidectomy. The animals were sacrificed 24 hours after the last dose, and the ventral prostate and seminal vesicles were excised, cleaned of fat and connective tissue, blotted on moist filter paper and weighed to the nearest 0.1 mg. See, e.g., Hershberger, L. et al, Myotrophic Activity of 19-nortestosterone And Other Steroids Determined By Modified Levator And Muscle Method, Proc. Soc. Exptl. Biol. Med 83 175–180 (1953). Regression analysis was performed by conventional methods using a PROPHET data management system. See, e.g., Bliss, C., The Statistics of Bioassay (Academic Press, New York, 1952); Hollister, C., Nucleic Acids Res. 16 1873–75 (1988). Ventral prostate weight was used as the endpoint because it is the sensitive organ to androgenic stimulation.
# as §1, with “(oral) or subcutaneous injection” for “(oral)”, “mg.” for “mg. See, e.g., Hershberger, L. et al, Myotrophic Activity of 19-nortestosterone And Other Steroids Determined By Modified Levator And Muscle Method, Proc. Soc. Exptl. Biol. Med 83 175–180 (1953).”, “system.” for “system. See, e.g., Bliss, C., The Statistics of Bioassay (Academic Press, New York, 1952); Hollister, C., Nucleic Acids Res. 16 1873–75 (1988).”
# Immature (about 21-day-old) Sprague-Dawley rats were orchidectomized under anesthesia, and randomly assignee to groups of ten animals for each dose level of the active undergoing testing. Four dosage forms were prepared. The first two forms constituted a solution of each active in 10% ethanol/sesame oil. The third and fourth dosage forms constituted a suspension of each active in an aqueous carrier (as described in Example 2, supra). These dosage forms were then administered by gavage (oral) to separate animal groups each day for seven days beginning on the date of the orchidectomy. Each carrier was also administered (alone) to separate groups of animals as a control. The animals were sacrificed 24 hours after the last dose, and the ventral prostate and seminal vesicles were excised, cleaned of fat and connective tissue, blotted on moist filter paper and weighed to the nearest 0.1 mg. See, e.g., Hershberger, L. et al, Myotrophic Activity of 19-nortestosterone And Other Steroids Determined By Modified Levator And Muscle Method, Proc. Soc. Exptl. Biol. Med. 83 175–180 (1953). Regression analysis was performed by conventional methods using a PROPHET data management system. See, e.g., Bliss, C., The Statistics of Bioassay (Academic Press, New York, 1952); Hollister, C., Nucleic Acids Res. 16 1873–75 (1988). Ventral prostate weight was used as the endpoint because it is the sensitive organ to androgenic stimulation.
# Immature (about 21 day old) Sprague male rats were orchidectomized under anesthesia, and randomly assignee to groups often animals for each dose level of the active undergoing testing. Animals were maintained under standard conditions of housing and had free access to food and water. Illumination was controlled for 14 hour periods of light and 10 hours of darkness. Each active was dissolved in 10% ethanol/sesame oil and administered by gavage (oral) each day for seven days beginning on the date of the orchidectomy. […]
# [1] = Serum levels of the free alcohol after single subcutaneous injection of ester; type: in vivo, Sprague-Dawley rats; conditions: single subcutaneous 0.6 mg suspended in aqueous carrier; 10 week observation period, FIG. 10
# Protocol: Immature (about 21-day-old) Sprague-Dawley rats were orchidectomized under anesthesia, and randomly assignee to groups of 40 or more. Animals received a single subcutaneous injection of 0.6 mg of each ester in 0.2 ml of an aqueous suspending carrier and/or oily carrier (10% ethanol/90% sesame oil or ethyl oleate) on the date of the orchidectomy. In cases where the ester was not solid at room temperature, 10% ethanol/sesame oil or ethyl oleate was used as the carrier. In this example, the carrier used to provide the aqueous suspension was formulated as follows: 1 g benzyl alcohol, 0.5 g sodium carboxylethyl cellulose 50, 0.376 g disodium hydrogen phosphate dihydrate, 1.495 g sodium dihydrogen phosphate dihydrate, with water for injection (WFI) being added to bring volume of the carrier up to 100 ml.
# [2] = gavage daily for 7 days in 10% ethanol/sesame oil
SMILES,"oral androgenic activity, times as potent as methyltestosterone (ventral prostate weight)","oral androgenic activity, times as potent as testosterone bucyclate (1781 V-1) (ventral prostate weight; [2])","oral androgenic activity, times as potent as the free alcohol (1321 D) (ventral prostate weight; [2])","oral androgenic activity, times more potent than testosterone (111-C) (ventral prostate weight; [2])","oral androgenic activity, times more potent than testosterone enanthate (112a) (ventral prostate weight; [2])","serum levels of the free alcohol (7α,11β-dimethyl-19-nortestosterone) [1]","oral androgenic potency relative to methyltestosterone in the same aqueous carrier (ventral prostate weight; gavage daily for 7 days, suspension in aqueous carrier)"
"CCCC[C@H]1CC[C@H](C(=O)O[C@H]2CC[C@H]3[C@H]4[C@H]([C@@H](C)C[C@]23C)[C@H]2CCC(=O)C=C2C[C@H]4C)CC1 (relative stereo) [Compound I, 7α,11β-Dimethyl-17β-hydroxy-4-estren-3-one 17β-trans-4-n-butylcyclohexane carboxylate]",3.77 times,at least 4 times,at least 4 times,10–100 times,10–100 times,highest levels of the free alcohol,–
"CCCCCCCCCCC(=O)O[C@H]1CC[C@H]2[C@H]3[C@H]([C@@H](C)C[C@]12C)[C@H]1CCC(=O)C=C1C[C@H]3C [Compound II, 7α,11β-dimethyl-17β-hydroxyestr-4-en-3-one 17-undecanoate]",2.36 times,–,–,–,–,–,0.95 times
